The record followed here is patent publication US20090105250A1, “COMPOUNDS AND COMPOSITIONS AS PROTEIN KINASE INHIBITORS” (IRM LLC, priority 2005, published 2009).

The term IC50 denotes the concentration needed to halve the response being measured. Higher therefore signals weaker potency in that assay.

Common to all, as to assay type: cell-based
Experiment [1] concerns the target T1, Flt-3 (Homo sapiens, UniProt P36888, cells depend on it, form not given).
T1 sequence (P36888 1-993): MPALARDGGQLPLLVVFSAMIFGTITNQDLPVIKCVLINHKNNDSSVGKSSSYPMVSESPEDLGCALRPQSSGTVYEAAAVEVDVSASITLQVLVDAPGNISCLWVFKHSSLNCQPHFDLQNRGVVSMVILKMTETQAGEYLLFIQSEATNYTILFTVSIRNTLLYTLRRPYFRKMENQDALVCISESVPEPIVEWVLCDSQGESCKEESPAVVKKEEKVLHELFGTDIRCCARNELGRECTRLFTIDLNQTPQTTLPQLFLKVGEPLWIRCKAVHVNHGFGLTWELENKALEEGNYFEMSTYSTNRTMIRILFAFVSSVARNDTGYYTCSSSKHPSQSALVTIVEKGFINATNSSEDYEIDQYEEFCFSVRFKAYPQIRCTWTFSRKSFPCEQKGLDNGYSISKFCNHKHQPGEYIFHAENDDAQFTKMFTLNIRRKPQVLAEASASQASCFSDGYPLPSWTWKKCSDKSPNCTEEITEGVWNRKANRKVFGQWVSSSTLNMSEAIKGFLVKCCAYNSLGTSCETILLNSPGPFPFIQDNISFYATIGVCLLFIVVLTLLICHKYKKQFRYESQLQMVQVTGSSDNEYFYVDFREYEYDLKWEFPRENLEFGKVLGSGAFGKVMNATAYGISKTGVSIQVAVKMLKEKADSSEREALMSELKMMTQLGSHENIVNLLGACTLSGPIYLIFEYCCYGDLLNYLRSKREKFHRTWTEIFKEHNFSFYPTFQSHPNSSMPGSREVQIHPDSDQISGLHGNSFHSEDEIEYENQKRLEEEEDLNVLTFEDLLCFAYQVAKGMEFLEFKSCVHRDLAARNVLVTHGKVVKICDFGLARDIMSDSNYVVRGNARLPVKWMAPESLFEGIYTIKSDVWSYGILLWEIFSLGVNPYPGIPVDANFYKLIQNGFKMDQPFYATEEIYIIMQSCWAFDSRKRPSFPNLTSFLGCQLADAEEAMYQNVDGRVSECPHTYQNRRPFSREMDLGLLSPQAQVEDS
Briefly: FLT3 (Cellular Assay), Ba/F3-FLT3-ITD proliferation. Conditions: read-out: IC50 for Flt-3.

The target of experiment [2] is T2, M351T Bcr-abl (Homo sapiens, UniProt P00519, M351T).
T2 construct: expressed in transfected cells; host or cells: Ba/F3 murine pro-B cells; the other entry of the earlier key: BCR (P11274, Breakpoint cluster region protein)
Briefly: Proliferation of Ba/F3 cells expressing mutant Bcr-abl M351T. As for the experimental part:
(§1) Ba/F3-p210 cells are plated into 96 well TC plates at a density of 15,000 cells per well. 50 μL of two fold serial dilutions of the test compound (Cmax, is […]) are added to each well (STI571 is included as a positive control). After incubating the cells for 48 hours at 37° C., 5% CO2, 15 μL of MTT (Promega) is added to each well and the cells are incubated for an additional 5 hours. The optical density at 570 nm is quantified spectrophotometrically and IC50 values, the concentration of compound required for 50% inhibition, determined from a dose response curve.
(§2) Compounds of the invention are tested for their antiproliferative effect on Ba/F3 cells expressing either wild type or the mutant forms of BCR-Abl (G250E, E255V, T315I, F317L, M351T) that confers resistance or diminished sensitivity to STI571. The antiproliferative effect of these compounds on the mutant-BCR-Abl expressing cells and on the non transformed cells were tested as described above. The IC50 values of the compounds lacking toxicity on the untransformed cells were determined from the dose response curves obtained as describe above.

The target of experiment [3] is T3, T315I Bcr-abl (Homo sapiens, UniProt P00519, T315I).
T3 construct: expressed in transfected cells; host or cells: Ba/F3 murine pro-B cells; the other entry of the earlier key: BCR (P11274, Breakpoint cluster region protein)
The experiment can be described thus: Proliferation of Ba/F3 cells expressing mutant Bcr-abl T315I. As for the experimental part:
as §1, §2

Experiment [4] addresses T4, F317L Bcr-abl (Homo sapiens, UniProt P00519, F317L).
T4 construct: expressed in transfected cells; host or cells: Ba/F3 murine pro-B cells; the other entry of the earlier key: BCR (P11274, Breakpoint cluster region protein)
The experiment can be described thus: Proliferation of Ba/F3 cells expressing mutant Bcr-abl F317L. As for the experimental part: as §1, §2

Experiment [5] deals with T5, wild type Bcr-abl (Homo sapiens, UniProt P00519).
T5 construct: expressed in transfected cells; host or cells: Ba/F3 murine pro-B cells; the other entry of the earlier key: BCR (P11274, Breakpoint cluster region protein)
Briefly: Proliferation of Ba/F3 cells expressing wild type Bcr-abl. The procedure: The murine cell line used is the Ba/F3 murine pro-B cell line transformed with BCR-Abl cDNA (Ba/F3-p210). These cells are maintained in RPMI/10% fetal calf serum (RPMI/FCS) supplemented with penicillin 50 μg/mL, streptomycin 50 μg/mL and L-glutamine 200 mM. Untransformed Ba/F3 Ba/F3 cells are similarly maintained with the addition of murine recombinant IL3.
as §1
Compounds of the invention are tested for their antiproliferative effect on Ba/F3 cells expressing either wild type or the mutant forms of BCR-Abl (G250E, E255V, T315I, F317L, M351T) that confers resistance or diminished sensitivity to STI571. […] The IC50 values of the compounds lacking toxicity on the untransformed cells were determined from the dose response curves obtained as describe above.

Experiment [6] deals with T6, E255V Bcr-abl (Homo sapiens, UniProt P00519, E255V).
T6 construct: expressed in transfected cells; host or cells: Ba/F3 murine pro-B cells; the other entry of the earlier key: BCR (P11274, Breakpoint cluster region protein)
T6 sequence (P00519 229-512 E255V limits assumed): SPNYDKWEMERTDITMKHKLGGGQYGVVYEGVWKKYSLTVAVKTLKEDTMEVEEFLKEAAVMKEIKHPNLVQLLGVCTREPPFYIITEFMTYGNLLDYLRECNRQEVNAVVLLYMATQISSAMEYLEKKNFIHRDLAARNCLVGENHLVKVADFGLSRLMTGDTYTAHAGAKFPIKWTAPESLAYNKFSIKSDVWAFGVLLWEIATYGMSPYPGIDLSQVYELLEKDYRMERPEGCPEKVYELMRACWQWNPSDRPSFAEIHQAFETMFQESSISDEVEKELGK
The experiment can be described thus: Proliferation of Ba/F3 cells expressing mutant Bcr-abl E255V. The procedure: as §1, §2

The target of experiment [7] is T7, G250E Bcr-abl (Homo sapiens, UniProt P00519, G250E).
T7 construct: expressed in transfected cells; host or cells: Ba/F3 murine pro-B cells; the other entry of the earlier key: BCR (P11274, Breakpoint cluster region protein)
Briefly: Proliferation of Ba/F3 cells expressing mutant Bcr-abl G250E. The procedure: as §1, §2

Experiment [8] concerns the target T8, PDGFRβ (Homo sapiens, UniProt P09619).
T8 construct: fused on or other part: P41212 (Transcription factor ETV6)
Briefly: PDGFRβ (Cellular Assay), Ba/F3-Tel-PDGFRβ proliferation. Conditions: read-out: IC50 for PDGFRβ.

Molecules are shown by their SMILES.

T8 sequence (P09619 600-962 limits assumed, change not shown): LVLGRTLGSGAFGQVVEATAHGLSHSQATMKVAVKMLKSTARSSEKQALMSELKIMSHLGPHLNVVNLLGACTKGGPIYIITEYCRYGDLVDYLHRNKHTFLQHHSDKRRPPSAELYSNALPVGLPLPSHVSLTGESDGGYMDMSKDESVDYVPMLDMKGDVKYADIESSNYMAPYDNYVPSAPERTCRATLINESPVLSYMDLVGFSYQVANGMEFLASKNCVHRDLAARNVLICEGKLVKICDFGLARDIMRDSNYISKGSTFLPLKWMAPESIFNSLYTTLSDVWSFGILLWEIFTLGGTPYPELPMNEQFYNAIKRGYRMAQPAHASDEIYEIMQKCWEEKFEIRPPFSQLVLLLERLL

With `Cc1cn(-c2cc(C(=O)Nc3ccc(C)c(NC(=O)c4cnc(NCCO)s4)c3)cc(C(F)(F)F)c2)cn1` [Compound 5, 2-(2-Hydroxy-ethylamino)-thiazole-5-carboxylic acid {2-methyl-5-[3-(4-methyl-imidazol-1-yl)-5-trifluoromethyl-benzoylamino]-phenyl}-amide], the GI50 in experiment [1] worked out at 0.041 µM.
`CCN1CCN(c2cc(Nc3ncc(C(=O)Nc4cc(NC(=O)c5cccc(C(F)(F)F)c5)ccc4C)s3)nc(C)n2)CC1` [Example 8, 2-[6-(4-ethyl-piperazin-1-yl)-2-methyl-pyrimidin-4-ylamino]-thiazole-5-carboxylic acid [2-methyl-5-(3-trifluoromethyl-benzoylamino)-phenyl]-amide]: the IC50 was 0.005 µM in experiment [2]; 1.27 µM in experiment [3]; 0.005 µM in experiment [4]; 0.005 µM in experiment [5]; 0.012 µM in experiment [6]; 2.29 µM in experiment [7].
As to `Cc1cn(-c2cc(C(=O)Nc3ccc(C)c(NC(=O)c4cnc(Nc5cc(N6CCOCC6)nc(C)n5)s4)c3)cc(C(F)(F)F)c2)cn1` [Example 28, 2-(2-methyl-6-morpholin-4-yl-pyrimidin-4-ylamino)-thiazole-5-carboxylic acid {2-methyl-5-[3-(4-methyl-imidazol-1-yl)-5-trifluoromethyl-benzoylamino]-phenyl}-amide], the GI50 in experiment [8] came out at 0.005 µM.
As for `CCN1CCN(c2cc(Nc3ncc(C(=O)Nc4cc(NC(=O)c5cc(-n6cnc(C)c6)cc(C(F)(F)F)c5)ccc4C)s3)nc(C)n2)CC1` [Example 29, 2-[6-(4-ethyl-piperazin-1-yl)-2-methyl-pyrimidin-4-ylamino]-thiazole-5-carboxylic acid {2-methyl-5-[3-(4-methyl-imidazol-1-yl)-5-trifluoromethyl-benzoylamino]-phenyl}-amide], the IC50 stood at 0.57 µM in experiment [3] and 0.008 µM in experiment [5].
